# Laboratory results published in the METLIN SMRT retention time set (Domingo-Almenara et al. 2019).
# Assay: gradient 5% acetonitrile 3 min, to 50% in 2 min, to 85% in 15 min, held 3 min, 100 µL/min
# Conditions: column: Zorbax Extend-C18 2.1 x 50 mm; eluents: water / acetonitrile, 0.1% formic acid
# How it was run: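 Retention times of pure standards were taken from adduct peaks that were selected by computer and manually inspected. Over 3 months, mixtures of ~100 molecules were run by HPLC–quadrupole time-of-flight mass spectrometry in positive and negative ionization mode. The Zorbax Extend-C18 column (2.1 × 50 mm, 1.8 μm) ran at 100 μL/min in water and acetonitrile, each containing 0.1% formic acid, with 40 μL dead volume and 900 μL dwell volume.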
row,RP-LC retention time,SMILES
1,722 s,O=C(N[C@H]1C[C@@H]2C[C@H]1CN2S(=O)(=O)c1cccc2nsnc12)c1ccccc1
2,959 s,Cc1ccccc1CNS(=O)(=O)c1ccc(-c2c(C)noc2C)cc1
3,1090 s,CCc1cc(=O)n(CC(=O)Nc2ccc3c(c2)OCCO3)c(-c2cccc(F)c2)n1
4,972 s,Cc1sc(NC(=O)c2ccc(Br)cc2)nc1-c1ccc2c(c1)NC(=O)CO2
5,880 s,Nc1c(C(=O)Nc2ccc([N+](=O)[O-])cc2)oc2ccccc12
6,1120 s,O=C(CCS(=O)(=O)c1ccccc1)Nc1nc(-c2ccccc2)cs1
7,1080 s,Cc1cccc(NC(=O)CN2C(=O)C3CCCCN3c3ccc(S(=O)(=O)N4CCCCC4)cc32)c1 (centres undefined)
8,643 s,O=C(CN1CCc2[nH]c3c(F)c(Cl)ccc3c(=O)c2C1)Nc1ccc2c(c1)OCCO2
9,604 s,Cc1ccnc(N2CCCC(C(=O)NCCc3ccc(S(N)(=O)=O)cc3)C2)n1 (centres undefined)
10,846 s,CCCc1ccc(S(=O)(=O)N2CCC3(CC2)NCCN=C3NCc2ccc(C)cc2)cc1
11,694 s,CN1CCN(S(=O)(=O)c2cccc(-c3nc(-c4ccccc4)no3)c2)CC1
12,916 s,O=C(COc1ccc(Br)cc1)Nc1ccnn1Cc1cccs1
13,1210 s,Cc1cc(C)cc(NS(=O)(=O)c2cc(-c3nc(C(C)C)cs3)cs2)c1
14,680 s,Cc1cccc2nnc(N3CCCC(C(=O)Nc4ccccc4)C3)n12 (centres undefined)
15,1040 s,O=C1CC(c2nc(-c3ccc(Cl)cc3)no2)CN1c1ccc2c(c1)OCCO2 (centres undefined)
16,754 s,O=C(NCCCN1CCCC1=O)c1ccc2nc(CCc3ccccc3)oc2c1
17,682 s,COCCCNC(=O)CCCn1c(=O)c2cccn2c2ccccc21
18,869 s,CC(=O)c1ccc(N2C(=O)Cn3cccc3C2C(=O)NC2CCC(C)CC2)cc1 (centres undefined)
19,819 s,CC(C)C(=O)Nc1ccc2c(c1)N(C(=O)c1cccs1)CCC2
20,1240 s,COC(=O)c1ccc(Cl)cc1NC(=O)N1CCN(C)c2ccccc21
21,905 s,CC(=O)Nc1onc(C)c1-c1ccc(C)c(S(=O)(=O)N(C)Cc2ccccc2)c1
22,836 s,Cc1ccc(Nc2c(-c3cccc(Cl)c3)nc3cccc(C)n23)cc1
23,761 s,CC(=O)Nc1ccc(-c2noc(C3CCN(C(=O)Cc4c[nH]c5ccccc45)CC3)n2)cc1
24,632 s,COc1ccc(C(=O)Nc2ccc(-c3cn4ccc(C)nc4n3)cc2)cc1

row,RP-LC retention time,SMILES
1,844 s,CC(=O)N(Cc1nn(C)c2c1CN(S(=O)(=O)c1ccc(Cl)cc1)CC2)c1ccccc1
2,618 s,CCCN(C)C(=O)c1ccc2nc(-c3ccccc3)cn2c1
3,1030 s,COc1ccc(-c2noc(C3CCCN3C(=O)COc3ccc(Cl)cc3)n2)cc1 (centres undefined)
4,948 s,COc1ccc(-c2nnc(SCc3ccc(C#N)cc3)o2)cc1
5,862 s,O=C(Cn1cccc1-c1nnc(C2CC2)o1)NCCc1ccc(Cl)cc1
6,947 s,COc1ccc(OCc2nn3c(-c4ccc(OC)cc4)nnc3s2)cc1
7,875 s,COc1cccc(-n2ccn3cc(-c4ccc(Cl)cc4)nc3c2=O)c1
8,639 s,O=C(c1ccc2c(c1)N(Cc1ccc(F)cc1)C(=O)CO2)N1CCN(c2ccccn2)CC1
9,746 s,COc1ccc(OC)c(NC(=O)C2(C)Oc3cccnc3NC2=O)c1 (centres undefined)
10,893 s,Cc1ccc(CNC(=O)C2(C)CN(S(C)(=O)=O)CC(=O)N2c2cccc(Cl)c2C)cc1 (centres undefined)
11,906 s,c1ccc(OCc2nc(-c3cccc(-c4ccn[nH]4)c3)no2)cc1
12,642 s,CCc1ccc2[nH]c3c(c(=O)c2c1)CN(CC(=O)NCc1cccc(Cl)c1)CC3
13,994 s,Cc1cc(-c2nnc(-c3ccccc3)o2)c(C)n1CC(=O)Nc1cc(F)ccc1F
14,1030 s,O=c1n(Cc2cccc(F)c2)nc2c(-c3nc(-c4cccc(F)c4)no3)cccn12
15,760 s,Cc1ccc(Cl)c2c1NC(=O)C2(O)CC(=O)c1ccccc1 (centres undefined)
16,732 s,O=C1CN(C(=O)c2cccc(C(F)(F)F)c2)c2ccccc2N1
17,591 s,O=C1CCCCC(Cc2cccnc2)(C(=O)NCc2ccc3c(c2)OCO3)N1 (centres undefined)
18,1110 s,CCSc1nc2ccc(NS(=O)(=O)c3ccc(F)c(Cl)c3)cc2s1
19,909 s,CN(CCc1noc(-c2ccc(F)cc2)n1)C(=O)NCCc1ccccc1
20,936 s,Cc1[nH]nc(-c2cc(S(=O)(=O)NCC(C)c3ccccc3)c(C)s2)c1C (centres undefined)
21,910 s,COC(=O)C1=CN(c2ccc(F)c(Cl)c2)c2ccccc2S1(=O)=O
22,785 s,Cc1nnc2c(NC(=O)Cc3cccc(C(F)(F)F)c3)cccn12
23,1090 s,COc1ccc(-n2c(=O)c(C(=O)NCc3ccc4c(c3)OCO4)c(O)c3cccnc32)cc1

# The next lines start with the compound.
row,SMILES,RP-LC retention time
1,CCN(Cc1ccccc1)C(=O)CSc1cc(N2CCN(c3ccc(OC)cc3)CC2)ncn1,964 s
2,O=C(Cn1nc2n(c1=O)CCCC2)N1CCN(c2ccccc2)CC1,638 s
3,Cc1oc(C2CCN(S(=O)(=O)CCc3ccccc3)CC2)nc1C(=O)N1CCCCC1,943 s
4,CCNC(=O)C1CCN(C(=O)Nc2ccc(NC(=O)Nc3ccccc3F)cc2)CC1,686 s
5,Cc1ccc2c(c1)N(Cc1ccccc1)N=C(C(=O)N1CCC(C)CC1)S2(=O)=O,1080 s
6,COc1cc(NC(=O)CSc2cc(N3CCN(c4ccccc4OC)CC3)ncn2)cc(OC)c1,957 s
7,CCC(C)C(=O)N1CCCN(C2=NS(=O)(=O)C(c3ccccc3)=C2C)CC1 (centres undefined),777 s
8,CCN1CCc2ncnc(SCC(=O)Nc3ccc(Cl)cc3C(F)(F)F)c2C1,597 s
9,O=C(Cn1nc2c(N3CCN(c4ccccc4)CC3)nccn2c1=O)Nc1cccc(Cl)c1,964 s
10,Cc1cc(C)n(CCNC(=O)Nc2cccs2)n1,603 s
11,CCN1CCN(CCCNC(=O)CCCN2C(=O)COc3ccc(C)cc32)CC1,585 s
12,CCn1cc(CCNC(=O)NCC(=O)OC)c2cccnc21,574 s
13,COC(=O)c1sccc1S(=O)(=O)N1CCC(C(N)=O)(N2CCCCC2)CC1,580 s
14,Cc1ccc(CN2CCC(CNC(=O)c3c(C)oc4ncnc(N5CCOCC5)c34)C2)cc1 (centres undefined),853 s
15,CC1CCCCN1CCNC(=O)Cn1c2ccccc2c2cnn(C)c(=O)c21 (centres undefined),620 s
16,COc1ccc(CCc2nc3nccc(-c4cccnc4)n3n2)cc1,720 s
17,CCOC(=O)N1CCN(c2ncc(C(=O)NCc3ccccc3)c(N)n2)CC1,656 s
18,O=C1C(OC2CCN(S(=O)(=O)c3ccccc3Cl)CC2)CCN1CC1CC1 (centres undefined),870 s
19,CCn1cc(CCN2CCN(S(=O)(=O)c3ccc4c(c3)CCC4)CC2)c2cccnc21,702 s
20,COc1ccc(S(=O)(=O)N2CCCC(C(=O)NCC3CCCO3)C2)cc1Cl (centres undefined),785 s
21,CC1CCN(S(=O)(=O)c2ccc(-c3nnc(C(=O)NC4CCCCCC4)o3)cc2)CC1,1170 s

row,SMILES,RP-LC retention time
1,COc1cccc(S(=O)(=O)N2CCC(c3nc(C(=O)N(C)C)c(C)o3)CC2)c1,794 s
2,CCCN1CCN(C(=O)C2CCN(S(=O)(=O)c3ccc4c(c3)NC(=O)C(C)S4)CC2)CC1 (centres undefined),593 s
3,Cc1nc(NCCCn2ccnc2)nc(Nc2ccccc2)c1[N+](=O)[O-],589 s
4,O=C(Nc1ccc2c(c1)OCCO2)N1CCCC1c1nc(CCOCC2CC2)no1 (centres undefined),788 s
5,O=C(c1csc(N2CCCCCC2)n1)N1CCOCC1,767 s
6,COCC(=O)N1CCCCCNC(=O)[C@@H]2CCCC[C@@H]21,631 s
7,O=C(NCCC1=CCCCC1)c1nc(Nc2ccccc2)c2ccccc2n1,960 s
8,CCn1cc(C)c(C(=O)O)c1CC(=O)Nc1ccc(C)cn1,680 s
9,CCc1cc2c(N3CCCC(C(=O)NCCCN4CCN(CC)CC4)C3)ncnc2s1 (centres undefined),579 s
10,CCCNC(=O)CN1CCN(Cc2ccccc2)C1=O,675 s
11,CCCCOCCCNCc1ccc2c(c1)n(C)c(=O)n2C,593 s
12,O=c1n(Cc2ccccc2)nc2n1CCN(S(=O)(=O)c1ccccc1)CC2,793 s
13,Cc1nnc(NC(=O)CN2CC(c3nc(C4CC4)no3)C2)s1,537 s
14,CN1CCN(C(=O)C2CCCN(c3ncccc3-c3noc(C4CCC4)n3)C2)CC1 (centres undefined),623 s
15,COc1ccc(NS(=O)(=O)c2c(C)sc(C)c2-c2cc(C(F)(F)F)on2)c(OC)c1,1140 s
16,CC1Cc2ccccc2N1C(=O)c1ccc(=O)n(CCC(=O)N2CCCCCC2)n1 (centres undefined),814 s
17,COc1cccc(CNC(=O)C2CCN(c3nnc4cccc(C)n34)CC2)c1,642 s
18,Cc1cc(N2CCN(C(=O)Nc3cccc(C(F)(F)F)c3)CC2)nc(N2CCOCC2)n1,675 s
19,O=C(c1cnccn1)N1CCC(F)(F)C(COCC2CC2)C1 (centres undefined),786 s
20,CCOC(=O)C1CCN(C(=O)c2cc(=O)c(OCc3ccc(F)cc3)cn2C)CC1,750 s
21,Cc1noc(C)c1S(=O)(=O)N1CCCC(c2nnnn2-c2ccccc2)C1 (centres undefined),903 s
